The test system of experiment [1] is Rattus norvegicus. Briefly: Antidiabetic activity in rat assessed as reduction of blood glucose level at 10 mg/kg, iv relative to control. Format: functional. Set-up: scale not given: the % may be the effect or the level left.
Experiment [2] has as its target T1, Fructose-1,6-bisphosphatase 1 (Rattus norvegicus, UniProt P19112).
T1 sequence (P19112 whole entry): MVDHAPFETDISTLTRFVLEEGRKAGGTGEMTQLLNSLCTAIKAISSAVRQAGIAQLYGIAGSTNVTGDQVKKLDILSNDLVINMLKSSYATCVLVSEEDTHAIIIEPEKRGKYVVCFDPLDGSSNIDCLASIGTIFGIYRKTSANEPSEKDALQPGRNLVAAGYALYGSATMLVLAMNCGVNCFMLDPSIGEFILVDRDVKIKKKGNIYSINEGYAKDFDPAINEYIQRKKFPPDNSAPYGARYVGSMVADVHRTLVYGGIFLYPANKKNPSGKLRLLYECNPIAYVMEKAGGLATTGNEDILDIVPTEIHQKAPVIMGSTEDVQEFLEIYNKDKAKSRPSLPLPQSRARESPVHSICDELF
Put plainly: Inhibition of rat liver FBPase.

Experiment [3] addresses T2, Fructose-1,6-bisphosphatase 1 (Homo sapiens, UniProt P09467).
T2 sequence (P09467 whole entry): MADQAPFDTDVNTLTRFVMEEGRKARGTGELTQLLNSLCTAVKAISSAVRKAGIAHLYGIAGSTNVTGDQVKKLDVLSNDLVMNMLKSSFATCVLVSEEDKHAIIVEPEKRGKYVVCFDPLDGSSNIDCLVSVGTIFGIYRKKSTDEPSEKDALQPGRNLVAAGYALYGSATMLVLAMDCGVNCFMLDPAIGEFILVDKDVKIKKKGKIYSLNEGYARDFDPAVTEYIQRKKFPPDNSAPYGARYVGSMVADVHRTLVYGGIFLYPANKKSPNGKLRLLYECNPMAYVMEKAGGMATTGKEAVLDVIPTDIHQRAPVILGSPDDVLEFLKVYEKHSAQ
Briefly: Inhibition of human liver FBPase.

Structures are written as SMILES.

Among the data in ChEMBL document CHEMBL3217432, “Oxazole phosphonic acids as fructose 1,6-bisphosphatase inhibitors with potent glucose-lowering activity” (Medchemcomm, 2011) are Activity and IC50 values, retold here.

Turning to `CCSC(=O)c1oc(N)nc1-c1ccc(P(=O)(O)O)o1`, the Activity in experiment [1] was determined as 51%. Further, the IC50 (usually the midpoint of a concentration-inhibition curve) came to 2.3 µM in experiment [2] and 0.03 µM in experiment [3].

On to `CCOC(=O)c1oc(N)nc1-c1ccc(P(=O)(O)O)o1`, for which the Activity in experiment [1] is reported as 18%.

`Nc1nc(C(=O)OCP(=O)(O)O)co1` gave an IC50 in experiment [3] of 7 µM.

Take `C=CCc1oc(N)nc1-c1ccc(P(=O)(O)O)o1`: the Activity in experiment [1] is on record as 19%. The 50% inhibitory concentration (IC50) is 3 µM in experiment [2] and 0.14 µM in experiment [3].

Take `Nc1nc(-c2ccc(P(=O)(O)O)o2)c(C(=O)OCc2ccccc2)o1`: the Activity in experiment [1] is given as 0%. The IC50 in experiment [2] was found to be 2.25 µM; in experiment [3], 0.085 µM.

`O=C(OCP(=O)(O)O)c1ncoc1-c1ccccc1` yielded a half-inhibitory concentration (IC50) in experiment [3] of 10 µM.

Turning to `Nc1nc(-c2ccc(P(=O)(O)O)o2)c(-c2ccccc2)o1`, the Activity in experiment [1] is reported as 8%. Moreover, the results for the concentration for half-maximal inhibition (IC50) in experiment [2] and in experiment [3] were 2.5 µM and 0.16 µM, respectively.

`Nc1nc(-c2ccc(P(=O)(O)O)o2)c(Cc2ccccc2)o1`: the 50% inhibitory concentration (IC50) in experiment [2] was found to be 10 µM; in experiment [3] it was 0.9 µM.

Regarding `CCCCc1oc(N)nc1C(=O)OCP(=O)(O)O`, the Activity in experiment [1] was determined as 22%. Also, the IC50 was found to be 1.7 µM in experiment [2] and 0.25 µM in experiment [3].

The compound `Cc1oc(N)nc1C(=O)OCP(=O)(O)O` gave an IC50 in experiment [3] of 0.42 µM.

In experiment [3], `CC(C)(C)C(=O)c1oc(N)nc1-c1ccc(P(=O)(O)O)o1` gave a half-inhibitory concentration (IC50) of 0.855 µM.

For `CC(C)(C)Sc1oc(N)nc1-c1ccc(P(=O)(O)O)o1`, the IC50 in experiment [2] stood at 1.7 µM; in experiment [3], 0.12 µM.

Consider `CCCCc1oc(N)nc1-c1ccc(P(=O)(O)O)o1`, for which the Activity in experiment [1] amounted to 10%. The concentration for half-maximal inhibition (IC50) in experiment [2] amounted to 2.3 µM; in experiment [3], 0.17 µM.

As for `CNC(=O)c1oc(N)nc1-c1ccc(P(=O)(O)O)o1`, the Activity in experiment [1] is listed as 0%. The compound further showed an IC50 in experiment [3] of 1 µM.

Consider `Nc1nc(-c2ccc(P(=O)(O)O)o2)c(Cc2cccs2)o1`, for which the IC50 came out at 3.75 µM in experiment [2] and 0.26 µM in experiment [3].

Turning to `CCCCCc1oc(N)nc1C(=O)OCP(=O)(O)O`, inhibition in experiment [3] was half-maximal at 0.35 µM (IC50).

Turning to `CC(C)Sc1oc(N)nc1-c1ccc(P(=O)(O)O)o1`, in experiment [1], the Activity turned out to be 61%. Moreover, the concentration for half-maximal inhibition (IC50) in experiment [2] came out at 0.9 µM; in experiment [3], 0.11 µM.

`Cc1nc(C(=O)OCP(=O)(O)O)c(C(F)(F)F)o1` came in with a concentration for half-maximal inhibition (IC50) in experiment [3] of 10 µM.

In turn, `CC(C)Cc1oc(O)nc1-c1ccc(P(=O)(O)O)o1` displayed an IC50 in experiment [3] of 10 µM.

Turning to `CC(C)OC(=O)c1oc(N)nc1-c1ccc(P(=O)(O)O)o1`, the Activity in experiment [1] is reported as 7%. Also, in experiment [3], the concentration for half-maximal inhibition (IC50) came to 0.04 µM.

In experiment [3], `Nc1nc(-c2ccc(P(=O)(O)O)o2)co1` displayed a concentration for half-maximal inhibition (IC50) of 10 µM.

The compound `CC(C)Cc1oc(N(C)C)nc1-c1ccc(P(=O)(O)O)o1` showed a half-maximal inhibitory concentration (IC50) in experiment [3] of 2.1 µM.

In the case of `Nc1nc(-c2ccc(P(=O)(O)O)o2)c(CC2CCCCC2)o1`, the IC50 in experiment [2] came out at 5.5 µM; in experiment [3] it was 0.32 µM.

In experiment [3], `CC(C)Cc1ocnc1-c1ccc(P(=O)(O)O)o1` yielded a 50% inhibitory concentration (IC50) of 1.9 µM.

Turning to `COC(=O)c1oc(N)nc1-c1ccc(P(=O)(O)O)o1`, the Activity in experiment [1] was 0%. Further, the figures for the IC50 in experiment [2] and in experiment [3] were 3.9 µM and 0.067 µM, respectively.

For the compound `CCCCCc1oc(N)nc1-c1ccc(P(=O)(O)O)o1`, in experiment [1], the Activity is 7%. The figures for the IC50 in experiment [2] and in experiment [3] were 2.7 µM and 0.21 µM, respectively.

Take `CC(C)c1oc(N)nc1C(=O)OCP(=O)(O)O`: in experiment [3], it took 0.58 µM to reach half-maximal inhibition (IC50).

With `CCCSc1oc(N)nc1-c1ccc(P(=O)(O)O)o1`, in experiment [1], the Activity worked out at 61%.

In turn, `CNc1nc(-c2ccc(P(=O)(O)O)o2)c(CC(C)C)o1` displayed a half-maximal inhibitory concentration (IC50) in experiment [3] of 4.3 µM.

`CCCc1oc(N)nc1C(=O)OCP(=O)(O)O`: in experiment [3], it took 0.28 µM to reach half-maximal inhibition (IC50).

`CC(C)Cc1oc(C(C)C)nc1-c1ccc(P(=O)(O)O)o1` returned a half-maximal inhibitory concentration (IC50) in experiment [3] of 2.2 µM.

Take `CCc1nc(-c2ccc(P(=O)(O)O)o2)c(CC(C)C)o1`: the concentration for half-maximal inhibition (IC50) in experiment [3] was 0.95 µM.

`C=Cc1nc(-c2ccc(P(=O)(O)O)o2)c(CC(C)C)o1`: in experiment [3], the IC50 was determined as 6.7 µM.

In the case of `CC(C)Cc1oc(N)nc1-c1ccc(P(=O)(O)O)o1`, the Activity in experiment [1] turned out to be 51%.

On to `CCNc1nc(-c2ccc(P(=O)(O)O)o2)c(CC(C)C)o1`, for which the IC50 in experiment [3] amounted to 10 µM.

On to `Nc1nc(-c2ccc(P(=O)(O)O)o2)c(Sc2ccccc2)o1`, for which the IC50 in experiment [3] was 4 µM.

The compound `CCc1oc(N)nc1C(=O)OCP(=O)(O)O` had a half-inhibitory concentration (IC50) in experiment [3] of 0.38 µM.
